From US6303625A, “Triazolopyridines for the treatment of thrombosis disorders” (Ortho-McNeil Pharmaceutical, Inc., priority 1999, dated 2001)
No end group written: not given here.

What was measured:
GPIIb/IIIa [1] = target: T1, GPIIb/IIIa (Homo sapiens, UniProt P05106+P08514); conditions: background statement; cited from earlier work
GPIIb/IIIa [2] = target: T1, GPIIb/IIIa; assay: In vitro solid phase purified glycoprotein IIb/IIIa binding assay (fibrinogen binding); conditions: for inhibition at 50 µM: read-out: Fibrinogen Binding % Inh. (50 μM)
Protocol: In Vito Solid Phase Purified Glycoprotein IIB/IIA Binding Assay
The plate was covered and incubated overnight at 4° C. The GPIIb/IIa solution was discarded and 150 μl of 5% BSA was added and incubated at RT for 1-3 h. The plate was washed extensively with modified Tyrodes buffer. Biotinylated fibrinogen (25 μl/well) at 2×final concentration was added to the wells that contain the test compounds (25 μl/well). The plate was covered and incubated at RT for 2-4 h. Twenty minutes prior to incubation completion, one drop of Reagent A (Vecta Stain ABC Horse Radish Peroxidase kit, Vector Laboratories, Inc.) and one drop Reagent B were added with mixing to 5 mL modified Tyrodes buffer mix and let stand. The ligand solution was discarded and the plate washed (5×200 μl/well) with modified Tyrodes buffer. Vecta Stain HRP-Biotin-Avidin reagent (50 μl/well, as prepared above) was added and incubated at RT for 15 min. The Vecta Stain solution was discarded and the wells washed (5×200 μl/well) with modified Tyrodes buffer. Developing buffer (10 mL of 50 mM citrate/phosphate buffer @ pH 5.3, 6 mg o-phenylenediamine, 6 μl 30% H2 O2; 50 μl/well) was added and incubated at RT for 3-5 min, and then 2N H2 SO4 (50 μl/well) was added. The absorbance was read at 490 nm.

[3] = system: ADP-induced ex vivo platelet aggregation; assay: Ex vivo dog study: duration of >50% inhibition of ADP-induced ex vivo platelet aggregation; assay type: in vivo
Protocol: Adult mongrel dogs (8-13 kg) were anesthetized with sodium pentobarbital (35 mg/kg, i.v.) and artificially respired. Arterial blood pressure and heart rate were measured using a Millar catheter-tip pressure transducer inserted in a femoral artery. Another Millar transducer was placed in the left ventricle (LV) via a carotid artery to measure LV end diastolic pressure and indices of myocardial contractility. A lead II electrocardiogram was recorded from limb electrodes. Catheters were placed in a femoral artery and vein to sample blood and infuse drugs, respectively. Responses were continuously monitored using a Modular Instruments data acquisition system.
Arterial blood samples (5-9 ml) were withdrawn into tubes containing 3.8% sodium citrate to prepare platelet rich plasma (PRP) and to determine effects on coagulation parameters: prothrombin time (PT) and activated partial thromboplastin time (APTT). Separate blood samples (1.5 ml) were withdrawn in EDTA to determine hematocrit and cell counts (platelets, RBC's and white cells). Template bleeding times were obtained from the buccal surface using a symplate incision devise and Whatman filter paper.
Aggregation of PRP was performed using a BioData aggregometer. Aggregation of whole blood used a Chronolog impedance aggregometer. PT and APTT were determined on either a BioData or ACL 3000+ coagulation analyzer. Cells were counted with a Sysmex K-1000.
Compounds were solubilized in a small volume of dimethylformamide (DMF) and diluted with saline to a final concentration of 10% DMF. Compounds were administered by the intravenous route with a Harvard infusion pump. Doses was administered over a 15 min interval at a constant rate of 0.33 ml/min. Data were obtained after each dose and in 30 min intervals following the end of drug administration. Oral doses were administered as aqueous solutions via syringe.

gel-filtered platelets = assay: In vitro inhibition of thrombin-induced gel-filtered platelet aggregation; assay type: cell-based; conditions: Homo sapiens; for inhibition at 50 µM: read-out: Platelet Aggregation % Inh. (50 μM)
Protocol: In Vitro Inhibition of Thrombin-Induced Gel-Filtered Platelet Aggression Assay
The percentage of platelet aggregation is calculated as an increase in light transmission of compound-treated platelet concentrate vs. control-treated platelet concentrate. Human blood was obtained from drug free, normal donors into tubes containing […] sodium citrate. Platelet rich plasma (PRP) was collected by centrifugation of whole blood at 200×g for 10 min at 25° C. The PRP (5 mL) was gel filtered through Sepharose 2B (bed volume 50 mL), and the platelet count was adjusted to 2×10^7 platelets per sample. The following constituents were added to a siliconized cuvette: concentrated platelet filtrate and Tyrode's buffer (0.14M NaCl, 0.0027M KCl, 0.012M NaHCO3,0.76 mM Na2 HPO4, 0.0055M glucose, 2 mg/mL BSA and 5.0 mM HEPES @ pH 7.4) in an amount equal to 350 μl, 50 μl of 20 mM calcium and 50 μl of the test compound. Aggregation was monitored in a BIODATA aggregometer for the 3 min following the addition of agonist (thrombin 50 μl of 1 unit/mL).

[4] = system: in vitro thrombin-induced platelet aggregation; conditions: L. Alig, J. Med. Chem. 1992, 35, 4393; read-out: IC50 against in vitro thrombin-induced platelet aggregation; cited from earlier work

## Arg-Gly-Asp
GPIIb/IIIa [1]
  inhibition of fibrinogen binding to GPIIb/IIIa: shown to inhibit fibrinogen binding to GPIIb/IIIa

## O=C(O)C[C@H](NC(=O)C1CCCn2c(CCC3CCNCC3)nnc21)c1cccnc1 (stereo partly drawn) [Compound 1, β-[[[5,6,7,8-Tetrahydro-3-[2-(4-piperidinyl)ethyl]-1,2,4-triazolo[4,3-a]pyridin-8-yl]carbonyl]amino]-βS-3-pyridinepropanoic acid]
GPIIb/IIIa [2]
  IC50: 0.4 nM
  inhibition at 50 µM: 100%
[3]; intravenous, 0.3 mpk
  Intravenous Dosing Duration (of >50% inhibition of ADP-induced ex vivo platelet aggregation): 180 min
[3]; 3 mpk
  Oral Dosing Duration (of >50% inhibition of ADP-induced ex vivo platelet aggregation): 360 min
gel-filtered platelets
  IC50: 16 nM
  inhibition at 50 µM: 100%

## HHLGGAKQAGDV [gamma-chain peptide region of fibrinogen (γ400-411)]
GPIIb/IIIa [1]
  inhibition of fibrinogen binding to GPIIb/IIIa: shown to inhibit fibrinogen binding to GPIIb/IIIa

## CCN(CC)C(=O)COC(=O)C[C@H](NC(=O)C1CCCn2c(CCC3CCNCC3)nnc21)c1cccnc1 (stereo partly drawn) [Compound 4, β-[[[5,6,7,8-Tetrahydro-3-[2-(4-piperidinyl)ethyl]-1,2,4-triazolo[4,3-a]pyridin-8-yl]carbonyl]amino]-βS-3-pyridinepropanoic acid 2-(Diethylamino)-2-oxoethyl ester]
GPIIb/IIIa [2]
  IC50: 44.7 nM
  inhibition at 50 µM: 100%
[3]; 1 mpk
  Oral Dosing Duration (of >50% inhibition of ADP-induced ex vivo platelet aggregation): < 30 min
gel-filtered platelets
  IC50: 16400 nM
  inhibition at 50 µM: 100%

## CN(CC(=O)c1ccc(OCC(=O)O)c(OCC(=O)O)c1)C(=O)c1ccc(C(=N)N)cc1 [Ro-438857]
[4]
  IC50: 94 nM
